These results are taken from ChEMBL document CHEMBL1147492, “Small molecule biaryl FSH receptor agonists. Part 1: Lead discovery via encoded combinatorial synthesis” (Bioorg Med Chem Lett, 2004).

Molecules are shown by their SMILES.

This assay addresses T1, Follicle-stimulating hormone receptor (Homo sapiens, UniProt P23945).
T1 sequence (P23945 whole entry): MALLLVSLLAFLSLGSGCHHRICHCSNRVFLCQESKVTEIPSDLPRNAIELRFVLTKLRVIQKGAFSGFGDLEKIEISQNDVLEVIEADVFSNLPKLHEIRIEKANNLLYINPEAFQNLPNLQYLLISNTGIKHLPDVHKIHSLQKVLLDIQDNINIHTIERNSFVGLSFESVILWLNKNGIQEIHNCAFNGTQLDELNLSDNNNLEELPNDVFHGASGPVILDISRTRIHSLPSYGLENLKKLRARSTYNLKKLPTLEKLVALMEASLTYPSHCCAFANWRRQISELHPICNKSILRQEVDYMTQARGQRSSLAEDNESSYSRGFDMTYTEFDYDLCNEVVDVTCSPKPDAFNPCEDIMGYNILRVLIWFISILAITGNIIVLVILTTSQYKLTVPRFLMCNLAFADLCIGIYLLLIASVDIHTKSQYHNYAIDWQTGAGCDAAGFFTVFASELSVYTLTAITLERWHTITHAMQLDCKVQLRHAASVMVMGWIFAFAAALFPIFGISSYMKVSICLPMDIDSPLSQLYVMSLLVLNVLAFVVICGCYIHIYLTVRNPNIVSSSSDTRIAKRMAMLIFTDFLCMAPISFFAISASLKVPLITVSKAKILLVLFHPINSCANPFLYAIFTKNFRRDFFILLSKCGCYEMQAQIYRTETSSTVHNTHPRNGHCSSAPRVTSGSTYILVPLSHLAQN
The assay is described as follows: Agonistic activity against Follicle stimulating hormone receptor expressed in chinese hamster ovary cells(CHO). Type of assay: functional, cell-based.
Compound `CCCCOC(=O)N(CC(=O)NCC1CC1)Cc1ccc(-c2ccccc2CN(CCCC)C(C)=O)cc1` returned a concentration for a half-maximal effect (EC50) of 3900 nM. The result for `CCCCN(Cc1cccc(-c2ccc(C(=O)NC3CCCCN(CC(=O)NCCc4ccc(Cl)cc4)C3=O)cc2)c1)C(=O)NC` (stereo not given) reads 260 nM; that for `CCCCCCNC(=O)CN1C(=O)C(Cc2ccc(-c3ccc(CN(CCCC)C(=O)NC)cc3)cc2)N(C)C1=O` (stereo not given), 2500 nM. Under `CCCCCCNC(=O)CN1CC(=O)N(C)[C@@H](Cc2ccc(-c3cc(OC)c(OC)c(OC)c3)cc2)C1=O` stands 3000 nM; under `CCCCCNC(=O)CN1CC(=O)N(C)[C@@H](Cc2ccc(-c3cccc(CN(CCCC)C(=O)NC)c3)cc2)C1=O`, 1700 nM.
